From patent US20030139469A1, “Use of inhibitors of soluble epoxide hydrolase to inhibit vascular smooth muscle cell proliferation” (THE REGENTS OF THE UNIVERSITY OF CALIFORNIA, priority 2002, published 2003)

Tests used:
[1] = system: human VSM cells; assay: [3H]thymidine incorporation into DNA, human VSM cells; format: cell-based; details: for inhibition of DNA synthesis ([3H]thymidine incorporation): CDU 1.0 to 20 μM
Experimental: Human VSM cells were grown to 80-90% confluence and serum-starved (except where indicated) for 1 day.
FIG. 1a. Immediately following PDGF-BB (30 ng/ml) stimulation, CDU or DMSO vehicle (as a control, indicated on chart as “cont”) was added at the concentrations indicated. After 18 h, thymidine incorporation into DNA was assessed as described in Example 1.
FIG. 1b. Human VSM cells grown and challenged as in FIG. 1a, but the cells were stimulated with 10% serum rather than with PDGF-BB.
Human VSM cells were grown to 80-90% confluence and serum-starved as in FIG. 1. PDGF-BB (30 ng/ml) was added to all but control wells, followed immediately by the addition of mixed EETs and/or CDU at the concentrations indicated of total EETs. [^3H]Thymidine was added for the last 6 h of incubation, and its incorporation into DNA was assessed as described in Materials and Methods. Error bars represent SD; *p<0.05 compared to PDGF alone. Data shown are representative of two independent experiments.
Human VSM cells were grown to 80-90% confluence and serum-starved as in FIG. 1. PDGF-BB (30 ng/ml) was added to all but control wells and, at the times indicated after PDGF addition, CDU (10 μM) was added. At time=0, CDU and PDGF were added simultaneously. [^3H]Thymidine was added for the last 6 h of incubation and its incorporation into DNA was assessed as described in Example 1. Error bars represent SD; *p<0.05 compared to PDGF alone. Data shown are representative of three independent experiments.
Cell Culture. Human aortic smooth muscle cells were obtained from Clonetics (San Diego Calif.) at passage 3 and were maintained in MCBD 131 media supplemented with 2.5% FBS, 5 mg/L bovine insulin, 2 ug/L human recombinant EGF, 1 ug/L human recombinant PDGF-BB (“PDGF” is platelet derived growth factor, which is composed of a dimer of two chains, the A chain and the B chain, “PDGF-BB is a 24.3 kD homodimer of two B chains), 100 u/ml of penicillin, 100 u/ml streptomycin, and 2.5 ug/ml amphotericin B. The cells were growth-arrested by placing them in quiescence medium containing MCDB 131 medium, 20 mM HEPES (pH 7.4), 5 mg/ml transferrin, 0.5 mg/ml BSA, 50 U/ml penicillin, 50 U/ml streptomycin, and 2.5 ug/ml amphotericin B. Quiescence medium was changed daily for 1-2 days before each experiment. HL-60 cells were obtained from ATCC or from D. Hyde (UC Davis). HL-60 cells were cultured at cell densities between 2×10^5 and 8×10^5 cells/mL in RPMI-1640 (Mediatech) supplemented with 10% fetal calf serum.
Proliferation Assays. [^3H]thymidine incorporation assays were performed. […] At the indicated times, the number of cells in the plate was calculated by subjecting the cells to trypsinization and the cell density quantitated by light microscopy using a hemocytometer.

[2] = system: HL-60 cells; assay: HL-60 cell proliferation (hemocytometer count); format: cell-based, human; details: 12 μM, 24 and 48 h, FIG. 2
Experimental: Human promyelocytic HL-60 were incubated in serum-containing medium and CDU (12 μM) or DMSO vehicle was added at time zero. At 24 and 48 h after CDU addition the cells were counted using a hemocytometer. Error bars represent SD. Data shown are representative of two independent experiments. Cell Culture. Human aortic smooth muscle cells were obtained from Clonetics (San Diego Calif.) at passage 3 and were maintained in MCBD 131 media supplemented with 2.5% FBS, 5 mg/L bovine insulin, 2 ug/L human recombinant EGF, 1 ug/L human recombinant PDGF-BB (“PDGF” is platelet derived growth factor, which is composed of a dimer of two chains, the A chain and the B chain, “PDGF-BB is a 24.3 kD homodimer of two B chains), 100 u/ml of penicillin, 100 u/ml streptomycin, and 2.5 ug/ml amphotericin B. The cells were growth-arrested by placing them in quiescence medium containing MCDB 131 medium, 20 mM HEPES (pH 7.4), 5 mg/ml transferrin, 0.5 mg/ml BSA, 50 U/ml penicillin, 50 U/ml streptomycin, and 2.5 ug/ml amphotericin B. Quiescence medium was changed daily for 1-2 days before each experiment. HL-60 cells were obtained from ATCC or from D. Hyde (UC Davis). […] At the indicated times, the number of cells in the plate was calculated by subjecting the cells to trypsinization and the cell density quantitated by light microscopy using a hemocytometer.

CCCCCCCCCCCCNC(=O)NC1CCCCC1 [CDU, 1-cyclohexyl-3-dodecyl urea]
time of CDU addition after PDGF with most profound inhibition ([1]; 10 μM CDU, PDGF-BB 30 ng/ml, FIG. 5): 4 h
inhibition of DNA synthesis ([3H]thymidine incorporation) ([1]; 10% serum stimulated, FIG. 1b): dose-dependent inhibition of DNA synthesis
inhibition of DNA synthesis ([3H]thymidine incorporation) ([1]; PDGF-BB (30 ng/ml) stimulated, 18 h, FIG. 1a): dose-dependent inhibition of DNA synthesis
PDGF-stimulated [3H]thymidine incorporation ([1]; PDGF-BB, EETs 5 to 10 μM total, CDU 2.5 and 10 μM, separately or together, FIG. 3): inhibition of PDGF-stimulated [^3H]thymidine incorporation
proliferation of HL-60 cells [2]: proliferated to a similar extent
